# Experimental data from PubChem BioAssay (NCI).
#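 Interpolation was linear, between the two tested concentrations surrounding the appropriate level; five concentrations were tested over 48 hours in 96-well plates. Here, GI50 denotes the concentration required for 50% inhibition of growth. TGI denotes the concentration required for complete inhibition of growth.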
# Tests used:
# Experiment in all cases: NCI tumour cell line growth inhibition, 48 h
# HOP-92 NSCLC = tested on: HOP-92 NSCLC
# KM12 colon = tested on: KM12 colon
# HCT-116 colon = tested on: HCT-116 colon
# SK-MEL-5 melanoma = tested on: SK-MEL-5 melanoma
# PC-3 prostate = tested on: PC-3 prostate
# MOLT-4 leukemia = tested on: MOLT-4 leukemia
# T-47D breast = tested on: T-47D breast
# HCC-2998 colon = tested on: HCC-2998 colon
# MCF7 breast = tested on: MCF7 breast
# U251 CNS = tested on: U251 CNS
# NCI-H460 lung = tested on: NCI-H460 lung
# SN12C renal = tested on: SN12C renal
# NCI/ADR-RES ovarian = tested on: NCI/ADR-RES ovarian
# SNB-19 CNS = tested on: SNB-19 CNS
# SK-MEL-28 melanoma = tested on: SK-MEL-28 melanoma
# UO-31 renal = tested on: UO-31 renal
# MALME-3M melanoma = tested on: MALME-3M melanoma
# RXF 393 renal = tested on: RXF 393 renal
# LOX IMVI melanoma = tested on: LOX IMVI melanoma
# K-562 leukemia = tested on: K-562 leukemia
# OVCAR-3 ovarian = tested on: OVCAR-3 ovarian
# ACHN renal = tested on: ACHN renal
# SW-620 colon = tested on: SW-620 colon
# OVCAR-5 ovarian = tested on: OVCAR-5 ovarian
# SNB-75 CNS = tested on: SNB-75 CNS
# CCRF-CEM leukemia = tested on: CCRF-CEM leukemia
# UACC-62 melanoma = tested on: UACC-62 melanoma
# HCT-15 colon = tested on: HCT-15 colon
# SF-539 CNS = tested on: SF-539 CNS
# MDA-MB-231 breast = tested on: MDA-MB-231 breast
# NCI-H23 lung = tested on: NCI-H23 lung
# SF-295 CNS = tested on: SF-295 CNS
# EKVX NSCLC = tested on: EKVX NSCLC
# 786-0 renal = tested on: 786-0 renal
# HOP-62 NSCLC = tested on: HOP-62 NSCLC
# MDA-MB-435 = tested on: MDA-MB-435
# SK-OV-3 ovarian = tested on: SK-OV-3 ovarian
# SR leukemia = tested on: SR leukemia
# OVCAR-4 ovarian = tested on: OVCAR-4 ovarian
# COLO 205 colon = tested on: COLO 205 colon
# CAKI-1 renal = tested on: CAKI-1 renal
# RPMI-8226 leukemia = tested on: RPMI-8226 leukemia
# UACC-257 melanoma = tested on: UACC-257 melanoma
# A549 NSCLC = tested on: A549 NSCLC
# A498 renal = tested on: A498 renal
# SF-268 CNS = tested on: SF-268 CNS
# SK-MEL-2 melanoma = tested on: SK-MEL-2 melanoma
# OVCAR-8 ovarian = tested on: OVCAR-8 ovarian
# HT29 colon = tested on: HT29 colon
# HS 578T breast = tested on: HS 578T breast
# IGROV1 ovarian = tested on: IGROV1 ovarian
# BT-549 breast = tested on: BT-549 breast
# NCI-H522 lung = tested on: NCI-H522 lung
# DU-145 prostate = tested on: DU-145 prostate
compound,measurement,setting,value
Fc1ccc(Nc2ccc3cc(OCCCN4CCOCC4)ccc3n2)cc1F,GI50,HOP-92 NSCLC,2.63 µM
same,TGI,HOP-92 NSCLC,7.9 µM
same,GI50,KM12 colon,2.06 µM
same,TGI,KM12 colon,5.48 µM
same,GI50,HCT-116 colon,4.5 µM
same,TGI,HCT-116 colon,> 100 µM
same,GI50,SK-MEL-5 melanoma,1.75 µM
same,TGI,SK-MEL-5 melanoma,3.49 µM
same,GI50,PC-3 prostate,4.29 µM
same,TGI,PC-3 prostate,50 µM
same,GI50,MOLT-4 leukemia,3.45 µM
same,TGI,MOLT-4 leukemia,> 100 µM
same,GI50,T-47D breast,6.68 µM
same,TGI,T-47D breast,> 100 µM
same,GI50,HCC-2998 colon,2.22 µM
same,TGI,HCC-2998 colon,4.42 µM
same,GI50,MCF7 breast,3.11 µM
same,TGI,MCF7 breast,27 µM
same,GI50,U251 CNS,2.92 µM
same,TGI,U251 CNS,7.79 µM
same,GI50,NCI-H460 lung,2.93 µM
same,TGI,NCI-H460 lung,8.74 µM
same,GI50,SN12C renal,9.77 µM
same,TGI,SN12C renal,> 100 µM
same,GI50,NCI/ADR-RES ovarian,4.45 µM
same,TGI,NCI/ADR-RES ovarian,> 100 µM
same,GI50,SNB-19 CNS,2.78 µM
same,TGI,SNB-19 CNS,7.99 µM
same,GI50,SK-MEL-28 melanoma,1.87 µM
same,TGI,SK-MEL-28 melanoma,3.93 µM
same,GI50,UO-31 renal,2.24 µM
same,TGI,UO-31 renal,6.84 µM
same,GI50,MALME-3M melanoma,2.25 µM
same,TGI,MALME-3M melanoma,7.74 µM
same,GI50,RXF 393 renal,2.45 µM
same,TGI,RXF 393 renal,7.32 µM
same,GI50,LOX IMVI melanoma,1.6 µM
same,TGI,LOX IMVI melanoma,3.09 µM
same,GI50,K-562 leukemia,2.78 µM
same,TGI,K-562 leukemia,> 100 µM
same,GI50,OVCAR-3 ovarian,7.03 µM
same,TGI,OVCAR-3 ovarian,> 100 µM
same,GI50,ACHN renal,4.2 µM
same,TGI,ACHN renal,30.7 µM
same,GI50,SW-620 colon,2.12 µM
same,TGI,SW-620 colon,4.4 µM
same,GI50,OVCAR-5 ovarian,3.02 µM
same,TGI,OVCAR-5 ovarian,> 100 µM
same,GI50,SNB-75 CNS,2.44 µM
same,TGI,SNB-75 CNS,17.7 µM
same,GI50,CCRF-CEM leukemia,7.93 µM
same,TGI,CCRF-CEM leukemia,> 100 µM
same,GI50,UACC-62 melanoma,1.99 µM
same,TGI,UACC-62 melanoma,4.94 µM
same,GI50,HCT-15 colon,2.55 µM
same,TGI,HCT-15 colon,10.4 µM
same,GI50,SF-539 CNS,3.22 µM
same,TGI,SF-539 CNS,18.7 µM
same,GI50,MDA-MB-231 breast,1.96 µM
same,TGI,MDA-MB-231 breast,4.68 µM
same,GI50,NCI-H23 lung,3.93 µM
same,TGI,NCI-H23 lung,> 100 µM
same,GI50,SF-295 CNS,1.89 µM
same,TGI,SF-295 CNS,4.3 µM
same,GI50,EKVX NSCLC,5.86 µM
same,TGI,EKVX NSCLC,> 100 µM
same,GI50,786-0 renal,2.15 µM
same,TGI,786-0 renal,4.68 µM
same,GI50,HOP-62 NSCLC,4.54 µM
same,TGI,HOP-62 NSCLC,45.9 µM
same,GI50,MDA-MB-435,3.26 µM
same,TGI,MDA-MB-435,68 µM
same,GI50,SK-OV-3 ovarian,8.24 µM
same,TGI,SK-OV-3 ovarian,> 100 µM
same,GI50,SR leukemia,2.03 µM
same,TGI,SR leukemia,32.8 µM
same,GI50,OVCAR-4 ovarian,4.14 µM
same,TGI,OVCAR-4 ovarian,> 100 µM
same,GI50,COLO 205 colon,1.96 µM
same,TGI,COLO 205 colon,3.84 µM
same,GI50,CAKI-1 renal,3.71 µM
same,TGI,CAKI-1 renal,25.6 µM
same,GI50,RPMI-8226 leukemia,6.96 µM
same,TGI,RPMI-8226 leukemia,> 100 µM
same,GI50,UACC-257 melanoma,2.77 µM
same,TGI,UACC-257 melanoma,6.88 µM
same,GI50,A549 NSCLC,5.36 µM
same,TGI,A549 NSCLC,> 100 µM
same,GI50,A498 renal,2.21 µM
same,TGI,A498 renal,7.64 µM
same,GI50,SF-268 CNS,6.55 µM
same,TGI,SF-268 CNS,> 100 µM
same,GI50,SK-MEL-2 melanoma,4.84 µM
same,TGI,SK-MEL-2 melanoma,33.5 µM
same,GI50,OVCAR-8 ovarian,5.51 µM
same,TGI,OVCAR-8 ovarian,> 100 µM
same,GI50,HT29 colon,2.06 µM
same,TGI,HT29 colon,5.47 µM
same,GI50,HS 578T breast,3.06 µM
same,TGI,HS 578T breast,9.2 µM
same,GI50,IGROV1 ovarian,10.9 µM
same,TGI,IGROV1 ovarian,> 100 µM
same,GI50,BT-549 breast,7.28 µM
same,TGI,BT-549 breast,52.1 µM
same,GI50,NCI-H522 lung,2.15 µM
same,TGI,NCI-H522 lung,5.37 µM
same,GI50,DU-145 prostate,6.85 µM
same,TGI,DU-145 prostate,> 100 µM
